# Columns and labels:
# Pseudomonas aeruginosa [1] = assay: microbe, parasite or virus in culture; details: 12B
# Pseudomonas aeruginosa [2] = assay: microbe, parasite or virus in culture; assay type: functional; details: KG2505a
# Pseudomonas aeruginosa [3] = assay: microbe, parasite or virus in culture; assay type: functional; details: KG2505a; remark: listed apart in the source
# Pseudomonas aeruginosa [4] = assay: microbe, parasite or virus in culture; assay type: functional; details: KG2505a; remark: listed apart in the source
# Pseudomonas aeruginosa [5] = assay: microbe, parasite or virus in culture; assay type: functional; details: KG2505a; remark: listed apart in the source
# Pseudomonas aeruginosa [6] = assay: microbe, parasite or virus in culture; details: 12B; remark: listed apart in the source
# Pseudomonas aeruginosa [7] = assay: microbe, parasite or virus in culture; assay type: functional; details: 12B
# Pseudomonas aeruginosa [8] = assay: microbe, parasite or virus in culture; assay type: functional; details: KG2505a; remark: listed apart in the source
# Pseudomonas aeruginosa [9] = assay: microbe, parasite or virus in culture; details: 12B; remark: listed apart in the source
# Pseudomonas aeruginosa [10] = assay: microbe, parasite or virus in culture; details: 12B; remark: listed apart in the source
# Pseudomonas aeruginosa [11] = assay: Antimicrobial activity against AmpC overproducing Pseudomonas aeruginosa isolate Pae-beta-14 with PDC-2 variant by Etest; assay type: functional
# Pseudomonas aeruginosa [12] = assay: Antimicrobial activity against AmpC overproducing Pseudomonas aeruginosa isolate Pae-beta-09 with PDC-2 variant by Etest; assay type: functional
# Pseudomonas aeruginosa [13] = assay: Antimicrobial activity against AmpC overproducing Pseudomonas aeruginosa isolate Pae-beta-16 with PDC-3 variant by Etest; assay type: functional
# Pseudomonas aeruginosa [14] = assay: Antimicrobial activity against AmpC overproducing Pseudomonas aeruginosa isolate Pae-beta-03 with PDC-2 variant by Etest; assay type: functional
# Pseudomonas aeruginosa [15] = assay: Antimicrobial activity against AmpC overproducing Pseudomonas aeruginosa isolate Pae-beta-11 with PDC-2 variant by Etest; assay type: functional
# Pseudomonas aeruginosa [16] = assay: Antimicrobial activity against AmpC overproducing Pseudomonas aeruginosa isolate Pae-beta-20 with PDC-4 variant by Etest; assay type: functional
# Pseudomonas aeruginosa [17] = assay: Antimicrobial activity against AmpC overproducing Pseudomonas aeruginosa isolate Pae-beta-24 with PDC-5 variant by Etest; assay type: functional
# Pseudomonas aeruginosa [18] = assay: Antimicrobial activity against AmpC overproducing Pseudomonas aeruginosa isolate Pae-beta-10 with PDC-2 variant by Etest; assay type: functional
# Pseudomonas aeruginosa [19] = assay: Antimicrobial activity against Pseudomonas aeruginosa isolate Pae-beta-31 with PDC-9 variant by Etest; assay type: functional
# Pseudomonas aeruginosa [20] = assay: microbe, parasite or virus in culture; details: PAO1
# Pseudomonas aeruginosa [21] = assay: Antimicrobial activity against AmpC overproducing Pseudomonas aeruginosa isolate Pae-beta-08 with PDC-2 variant by Etest; assay type: functional
# Pseudomonas aeruginosa [22] = assay: Antimicrobial activity against Pseudomonas aeruginosa isolate Pae-beta-30 with PDC-8 variant by Etest; assay type: functional
# Pseudomonas aeruginosa [23] = assay: Antimicrobial activity against AmpC overproducing Pseudomonas aeruginosa isolate Pae-beta-13 with PDC-2 variant by Etest; assay type: functional
# Pseudomonas aeruginosa [24] = assay: Antimicrobial activity against AmpC overproducing Pseudomonas aeruginosa isolate Pae-beta-28 with PDC-7 variant by Etest; assay type: functional
# Pseudomonas aeruginosa [25] = assay: Antimicrobial activity against AmpC overproducing Pseudomonas aeruginosa isolate Pae-beta-15 with PDC-2 variant by Etest; assay type: functional
# Pseudomonas aeruginosa [26] = assay: Antimicrobial activity against AmpC overproducing Pseudomonas aeruginosa isolate Pae-beta-27 with PDC-7 variant by Etest; assay type: functional
# Pseudomonas aeruginosa [27] = assay: Antimicrobial activity against Pseudomonas aeruginosa isolate Pae-beta-01 with PDC-1 variant by Etest; assay type: functional
# Pseudomonas aeruginosa [28] = assay: Antimicrobial activity against AmpC overproducing Pseudomonas aeruginosa isolate Pae-beta-21 with PDC-4 variant by Etest; assay type: functional
# Pseudomonas aeruginosa [29] = assay: Antimicrobial activity against AmpC overproducing Pseudomonas aeruginosa isolate Pae-beta-23 with PDC-5 variant by Etest; assay type: functional
# Pseudomonas aeruginosa [30] = assay: Antimicrobial activity against Pseudomonas aeruginosa isolate Pae-beta-29 with PDC-8 variant by Etest; assay type: functional
# Pseudomonas aeruginosa [31] = assay: Antimicrobial activity against AmpC overproducing Pseudomonas aeruginosa isolate Pae-beta-32 with PDC-10 variant by Etest; assay type: functional
# Pseudomonas aeruginosa [32] = assay: Antimicrobial activity against AmpC overproducing Pseudomonas aeruginosa isolate Pae-beta-17 with PDC-3 variant by Etest; assay type: functional
# Pseudomonas aeruginosa [33] = assay: Antimicrobial activity against AmpC overproducing Pseudomonas aeruginosa isolate Pae-beta-07 with PDC-2 variant by Etest; assay type: functional
# Pseudomonas aeruginosa [34] = assay: Antimicrobial activity against AmpC overproducing Pseudomonas aeruginosa isolate Pae-beta-06 with PDC-2 variant by Etest; assay type: functional
# Pseudomonas aeruginosa [35] = assay: Antimicrobial activity against AmpC overproducing Pseudomonas aeruginosa isolate Pae-beta-22 with PDC-4 variant by Etest; assay type: functional
# Pseudomonas aeruginosa [36] = assay: microbe, parasite or virus in culture; details: isolate Pae-beta-26
# Pseudomonas aeruginosa [37] = assay: Antimicrobial activity against AmpC overproducing Pseudomonas aeruginosa isolate Pae-beta-25 with PDC-6 variant by Etest; assay type: functional
# Pseudomonas aeruginosa [38] = assay: Antimicrobial activity against AmpC overproducing Pseudomonas aeruginosa isolate Pae-beta-12 with PDC-2 variant by Etest; assay type: functional
# Pseudomonas aeruginosa [39] = assay: Antimicrobial activity against Pseudomonas aeruginosa isolate Pae-beta-02 with PDC-1 variant by Etest; assay type: functional
# Pseudomonas aeruginosa [40] = assay: Antimicrobial activity against AmpC overproducing Pseudomonas aeruginosa isolate Pae-beta-18 with PDC-3 variant by Etest; assay type: functional
# Pseudomonas aeruginosa [41] = assay: Antimicrobial activity against AmpC overproducing Pseudomonas aeruginosa isolate Pae-beta-04 with PDC-2 variant by Etest; assay type: functional
# Pseudomonas aeruginosa [42] = assay: Antimicrobial activity against Pseudomonas aeruginosa isolate Pae-beta-19 with PDC-3 variant by Etest; assay type: functional
# Pseudomonas aeruginosa [43] = assay: Antimicrobial activity against Pseudomonas aeruginosa isolate Pae-beta-05 with PDC-2 variant by Etest; assay type: functional
compound,measurement,setting,value
C[C@@H](O)[C@H]1C(=O)N2C(C(=O)O)=C(S[C@@H]3CN[C@H](C(=O)N(C)C)C3)[C@H](C)[C@H]12 [MEROPENEM],MIC,Pseudomonas aeruginosa [1],2 µg/mL
same,MIC,Pseudomonas aeruginosa [2],0.12 µg/mL
same,MIC,Pseudomonas aeruginosa [3],0.25 µg/mL
same,MIC,Pseudomonas aeruginosa [4],0.25 µg/mL
same,MIC,Pseudomonas aeruginosa [5],0.25 µg/mL
same,MIC,Pseudomonas aeruginosa [6],2 µg/mL
same,MIC,Pseudomonas aeruginosa [7],1 µg/mL
same,MIC,Pseudomonas aeruginosa [8],0.25 µg/mL
same,MIC,Pseudomonas aeruginosa [9],2 µg/mL
same,MIC,Pseudomonas aeruginosa [10],2 µg/mL
CC(C)(O/N=C(\C(=O)N[C@@H]1C(=O)N2C(C(=O)[O-])=C(C[n+]3ccccc3)CS[C@H]12)c1csc(N)n1)C(=O)O [CEFTAZIDIME],MIC,Pseudomonas aeruginosa [11],16 µg/mL
same,MIC,Pseudomonas aeruginosa [12],16 µg/mL
same,MIC,Pseudomonas aeruginosa [13],32 µg/mL
same,MIC,Pseudomonas aeruginosa [1],32 µg/mL
same,MIC,Pseudomonas aeruginosa [2],4 µg/mL
same,MIC,Pseudomonas aeruginosa [14],16 µg/mL
same,MIC,Pseudomonas aeruginosa [15],16 µg/mL
same,MIC,Pseudomonas aeruginosa [16],8 µg/mL
same,MIC,Pseudomonas aeruginosa [17],64 µg/mL
same,MIC,Pseudomonas aeruginosa [18],16 µg/mL
same,MIC,Pseudomonas aeruginosa [19],32 µg/mL
same,MIC,Pseudomonas aeruginosa [20],1 µg/mL
same,MIC,Pseudomonas aeruginosa [21],16 µg/mL
same,MIC,Pseudomonas aeruginosa [3],32 µg/mL
same,MIC,Pseudomonas aeruginosa [22],8 µg/mL
same,MIC,Pseudomonas aeruginosa [23],4 µg/mL
same,MIC,Pseudomonas aeruginosa [4],16 µg/mL
same,MIC,Pseudomonas aeruginosa [24],16 µg/mL
same,MIC,Pseudomonas aeruginosa [5],32 µg/mL
same,MIC,Pseudomonas aeruginosa [25],32 µg/mL
same,MIC,Pseudomonas aeruginosa [26],16 µg/mL
same,MIC,Pseudomonas aeruginosa [6],64 µg/mL
same,MIC,Pseudomonas aeruginosa [27],8 µg/mL
same,MIC,Pseudomonas aeruginosa [28],32 µg/mL
same,MIC,Pseudomonas aeruginosa [29],64 µg/mL
same,MIC,Pseudomonas aeruginosa [30],8 µg/mL
same,MIC,Pseudomonas aeruginosa [31],32 µg/mL
same,MIC,Pseudomonas aeruginosa [32],64 µg/mL
same,MIC,Pseudomonas aeruginosa [33],16 µg/mL
same,MIC,Pseudomonas aeruginosa [7],8 µg/mL
same,MIC,Pseudomonas aeruginosa [34],16 µg/mL
same,MIC,Pseudomonas aeruginosa [35],16 µg/mL
same,MIC,Pseudomonas aeruginosa [8],16 µg/mL
same,MIC,Pseudomonas aeruginosa [36],32 µg/mL
same,MIC,Pseudomonas aeruginosa [37],32 µg/mL
same,MIC,Pseudomonas aeruginosa [38],16 µg/mL
same,MIC,Pseudomonas aeruginosa [39],8 µg/mL
same,MIC,Pseudomonas aeruginosa [40],128 µg/mL
same,MIC,Pseudomonas aeruginosa [41],32 µg/mL
same,MIC,Pseudomonas aeruginosa [42],8 µg/mL
same,MIC,Pseudomonas aeruginosa [9],32 µg/mL
same,MIC,Pseudomonas aeruginosa [10],32 µg/mL
same,MIC,Pseudomonas aeruginosa [43],32 µg/mL
